Assay results reported in patent US20040058855A1, “Use of materials having zinc ionophoric behavior” (priority 2002, published 2004).
Read-outs that look alike come from different tables or passages of the source.

Columns and labels:
[1] = Zinc availability test with metallochromic dye zincon (colour change orange to blue); assay type: physicochemical; settings: ~30 mg/10 ml water, pH 7-11, zincon in ethanol
Source text: Zinc-containing materials (ZCMs) differ with respect to how strongly the zinc ion (Zn^2+) is held by counterions in the crystal lattice. The benefits discussed herein depend upon having available Zn^2+. […] The response is a binary visual assessment of whether or not the color changes indicating zinc-binding.
The method is based on the commercial metallochromic dye zincon. Zincon changes from an orange color to blue upon binding zinc and provides the basis for detecting available Zn^2+: [drawing 20]
The specific procedure involves making a stock solution of zincon in ethanol (˜50 mg/10 ml ethanol). The ZCM is then added to water (˜30 mg/10 ml water) and agitated (pH range should be 7-11). Three to four drops of zincon solution are then added to the ZCM in water, agitated and a visual assessment of color change made.

[2] = test system: Malassezia furfur (ATCC 14521); test: Minimum inhibitory concentration (MIC) against Malassezia furfur in mDixon agar; assay type: cell-based; settings: for MIC: Malassezia furfur, lowest tested dilution with no visible growth, 30° for 5 days
Method: Antifungal activity is assessed microbiologically by a method as described below^1.
^1. The Minimum Inhibitory Concentration is indicative of anti-fungal efficacy. Generally, the lower the value of the composition, the better its anti-fungal efficacy, due to increased inherent ability of the anti-dandruff agent to inhibit the growth of microorganisms.
Dilutions of solubilized anti-microbial active were then added to test tubes containing molten mDixon agar. M. furfur inoculum was added to each tube of molten agar, the tube vortexed, and the contents poured into separate sterile petri dishes. […] The lowest tested dilution of anti-microbial active that yields no growth is defined as the Minimal Inhibitory Concentration (MIC).
1) Malassezia furfur was grown in a 250 ml Erlenmeyer flask containing 100 ml “mDIXON” medium at 320 rpm and 30° C. until turbid.
2) Selected dilutions were prepared using an appropriate dilution series, of the anti-microbial active or combination in solvent, which allowed the sample active to be solubilized prior to addition to the final test agar.
3) 0.25 ml dilutions of anti-microbial active were added to test tubes containing 9.5 ml molten “mDIXON” agar (held at 45° C. in a water bath).
4) 0.25 M. furfur inoculum (adjusted to 5×10^5 cfu/ml by direct count) was added to each test tube of molten agar.
5) Each tube was vortexed, and the contents poured into separate petri dishes.
6) After the agar solidified, the plates inverted and incubated at 30° for 5 days.
7) The plates were then observed for visible M. furfur growth.
Anti-fungal activity of materials having zinc ionophoric behavior was screened by measurement of minimum inhibitory concentrations (MIC's) against Malassezia furfur.

[3] = test system: human umbilical vein endothelial cells; test: Rate of zinc transport into model cells (intracellular zinc, Fura-2 fluorescence); assay type: cell-based; settings: 1 mM ZPT (0.32 ppm) and an equal weight proportion of zinc salt
Method: Measurement of the free zinc levels in cells as a function of time is a direct measure of delivery of zinc across the cell wall/membrane. There are many methods available for assessing this process, many are based on use of intracellular fluorescent dyes. An exemplary method is similar to that reported by Turan et al. (Turan, […]. Am. J. Physiol. 1997, 272, […]-[…]). In this case, […] used, although the procedure is general and can be used with all eukaryotic cells. […] Cells are plated onto a glass cover slip. These immobilized cells are then exposed to a zinc-responsive fluorescent dye such as Fura-2 (Molecular Probes, Inc.) to load the cells with this cell-permeant fluorophore. The cells are then washed to remove dye that is not intracellular. Upon exposure to test treatments, fluorescence is measured as a function of time; in the case of Fura-2, the ratio of fluorescence intensities at 505 nm is taken in response to excitation at 340 and 380 nm. The fluorescence is conveniently measured by using an epifluorescence inverted microscope interfaced to a spectrofluorometer. Fluorescence intensity is proportional to the detected zinc level. […] TPEN) to assure the measured fluorescent response is due to zinc and not an artifact of calcium transport. In the present invention, the method as described herein may be used to identify materials with zinc ionophoric behavior.

[4] = to inhibit M. furfur growth, zinc salt alone (MIC) or together with the stated amount of ZPT
[5] = ATCC14521, 120 h, read-out: MIC

Compound	available Zn^2+ (zincon colour change, binary visual assessment) [1]	further results
N=C(N)NCCC[C@H](N)C(=O)O.[Zn] [zinc arginine]	have available zinc	–
[O]=[Zn] [ZnO, zinc oxide]	have available zinc	Antifungal activity of ZPT: Amount of zinc salt required [2, 4]: 500 ppm; Rate of Zinc Transport [3]: ˜0 min^−1
zinc histadine	have available zinc	–
O=S(=O)([O-])[O-].[Zn+2] [ZnSO4, zinc sulfate]	have available zinc	Antifungal activity of ZPT: Amount of zinc salt required [2]: 5000 ppm; Rate of Zinc Transport [3]: ˜0 min^−1
Oc1c(I)cc(I)c2cccnc12 [Diodoquin, 5,7-Diiodo-8-hydroxyquinoline]	–	MIC [2, 5]: 25 µg/mL
O=C([O-])C(=O)[O-].[Zn+2] [zinc oxalate]	have available zinc	–
CNc1ccc2oc(C[C@H]3O[C@@]4(CC[C@H]3C)O[C@H]([C@H](C)C(=O)c3ccc[nH]3)[C@H](C)C[C@H]4C)nc2c1C(=O)O [A23187, Calcimycin]	–	MIC [2, 5]: > 13 µg/mL
zinc stearate	have available zinc	–
CC(O)C(=O)[O-].CC(O)C(=O)[O-].[Zn+2] (centres unmarked) [zinc lactate]	have available zinc	–
Cc1ccc2c(Cl)cc(Cl)c(O)c2n1 [Sterosan, 2-Me, 5,7-Dichloro-8-hydroxyquinoline]	–	MIC [2, 5]: 100 µg/mL
CC(=O)[O-].CC(=O)[O-].[Zn+2] [zinc acetate]	have available zinc	–
CCCCN(CCCC)C(=S)SSC(=S)N(CCCC)CCCC [TBTDS, Tetra-n-butyl thiuram Disulfide]	–	MIC [2, 5]: > 1000 µg/mL
OCC(O)CO.[Zn] [zinc monoglycerolate]	have available zinc	–
Oc1c(Br)cc(Br)c2cccnc12 [5,7-D-Br-8-HQ, 5-7-Bibromo-8-hydroxyquinoline]	–	MIC [2, 5]: 25 µg/mL
[O-]n1ccccc1=S.[O-]n1ccccc1=S.[Zn+2] [ZPT, zinc salt of 1-hydroxy-2-pyridinethione]	–	Antifungal activity of ZPT: Amount of zinc salt required [2, 4]: 0 ppm; Antifungal activity of ZPT: Amount of ZPT Required (%) ([2]; to inhibit M. furfur growth, 100% ZPT is equivalent to 8 ppm (MIC of ZPT alone)): 100%; Rate of Zinc Transport [3]: 4 min⁻¹
[OH-].[OH-].[Zn+2] [zinc hydroxide]	have available zinc	–
zinc hexaborate	have available zinc	–
Oc1c(I)cc(Cl)c2cccnc12 [Enterovioform, 5-Cl, 7-I-8-hydroxyquinoline]	–	MIC [2, 5]: 25 µg/mL
O=C([O-])CN(CCN(CC(=O)[O-])CC(=O)[O-])CC(=O)[O-].[Na+].[Na+].[Zn+2] [zinc EDTA]	not having available Zn^2+	–
[Cl-].[Cl-].[Zn+2] [zinc chloride]	have available zinc	–
Lasalocid	–	MIC [2]: >1000 ppm
O=C([O-])CC(O)(CC(=O)[O-])C(=O)[O-].O=C([O-])CC(O)(CC(=O)[O-])C(=O)[O-].[Zn+2].[Zn+2].[Zn+2] [zinc citrate]	have available zinc	–
zinc phytate	not having available Zn^2+	–
